Entries after “also recorded” stand apart in the source; their conditions may differ.
Assays:
Assay type in all cases: cell-based
[1] = system: mouse embryonic skin fibroblasts (MSFs); test: Live imaging of nuclear area and chromatin condensation (H2b-eGFP) during cyclic stretch routines; conditions: BAPTA 50 μM, KN-62 10 μM, cytochalasin D 2 μM
Description: (§1) Transgenic mice harboring a fluorescence tag at the H2b histone—B6.Cg-Tg (HIST1H2BB/EGFP) 1 Pa/J, Stock No: 006069—were obtained from Jackson Laboratory (Bar Harbor, Me.). All animal procedures were performed following Institutional Animal Care & Use Committee approval. Skin from embryonic mice was harvested 18.5 days post-conception. Skin was minced, washed with Hank's Balanced Salt Solution (HBSS), and incubated in 35 mm dishes in shallow medium (˜0.5 mL) to avoid floating of the tissue for 4 days, during which fibroblasts extruded from the tissue. After 4 days, remaining tissue was removed (picked out with a pipette), and extruded cells in the dish were detached using TrypLE (Gibco, Gaithersburg, Md.) and expanded in culture for another 2 days before being seeded into stretch chambers for experiments. The inner well of assembled stretch chambers was ozone activated for 30 s via corona arc discharge (BD-20; Electro-Technic Products) and coated with 50 μg/mL bovine plasma fibronectin (F1141; Sigma-Aldrich) in a total volume of 250 μL overnight at 37° C. Mouse embryonic skin fibroblasts (MSFs) were seeded into stretch chambers at a density of 80,000 cells/cm′ 1 day before experiments. MSFs were extruded and cultured in DMEM (ATCC, Manassas, Va.) containing 10% fetal bovine serum (Gibco), 1% penicillin-streptomycin (Gibco), and 25 mM HEPES (Gibco) at 37° C. and 5% CO2. To inhibit calcium signaling, MSFs were incubated with 50 μM BAPTA (A4926; Sigma-Aldrich) or 10 μM KN-62 (12142; Sigma-Aldrich) 1 h before cyclic strain experiments. To disrupt actin polymerization, MSFs were incubated with 2 μM cytochalasin D (C8273; Sigma-Aldrich) 30 min before experiments. Vehicle controls were incubated with 0.001% DMSO (276855; Sigma-Aldrich) 1 h before experiments. To test the use of chromatin dyes, cells were stained with Hoechst (NucBlue Live ReadyProbes; Life Technologies) 30 min before experiments. Stretch experiments were performed at 25° C. (room temperature) under humidified conditions.
The stretch device was mounted on an inverted epi-fluorescence microscope (Ti-Eclipse; Nikon) with a 60× water immersion objective (0.26 μm/pixel) and an EMCCD camera (iXonEM+; Andor Technology). The surrounding of the microscope was humidified to prevent the water on the objective from evaporating during the 1 h experiment. Oil immersion is also possible, but water immersion provided better image quality with the silicone membranes used.
Using MATLAB, a sinusoidal control signal (1 Hz) was sent to the Arduino controller, resulting in a cyclic stretch routine of the membrane (FIG. 1C), with peak strains set to 5% (−0.1 V), 10% (−0.9 V), and 20% (−2.25 V) as determined by the calibration curve. Cells were cyclically stretched for 30 min, followed by 30 min of rest, during which 2 μm z-stacks (0.5 μm steps) of nuclei were acquired. During the rest period, cells experienced no stretch but a constant magnetic field using the offset Arduino input voltage (0.8 V) that keeps the piston suspended at 0% stretch. For acquisition, the cyclic stretch routine was paused for 1 min to allow for a steady imaging plane and fine readjustments in z-position due to water evaporation. Unstretched control cells (0%) were seeded into stretch chambers but kept stationary on the microscope without any magnetic field applied. Unstretched magnetic control cells (MAG) were placed stationary inside the coil without the piston, and a magnetic field corresponding to a 20% sinusoidal stretch routine was applied.
A custom MATLAB code was used to track nuclear outlines via H2b-eGFP and to generate H2b intensity histograms during an image series, from which changes in nuclear area, H2b skewness, and H2b kurtosis were calculated.

[2] = system: mouse embryonic skin fibroblasts (MSFs); test: Perinuclear F-actin and γH2a.x staining after cyclic stretch routines; conditions: cytochalasin D 2 μM
Description: as §1
MSFs were fixed in 4% ice-cold paraformaldehyde (PFA) for 10 min, permeabilized with 1% Triton-X100 in phosphate-buffered saline for 15, min and blocked with 10% NGS, 1% bovine serum albumin in 0.1% PBT (0.1% Tween-20 in phosphate-buffered saline) for 60 min. Primary incubation of Phospho-Histone H2A.X Ser139 (9718S; Cell Signaling Technology, Danvers, Mass.) was performed at 4° C. overnight in 0.1% PBT containing 1% bovine serum albumin at 1:400. Secondary incubation of goat anti-rabbit IgG-AF546 (Life Technologies) was performed in primary incubation buffer for 45 min at 22° C. at a dilution of 1:500. F-actin was counterstained with phalloidin-CF405 (Biotium, Fremont, Calif.) for 30 min at a dilution of 1:30. Staining was performed in containment wells. After staining, membranes were cut out of the containment well using a circular punch and mounted cell-side up onto #1.0 glass slides with ProLong Diamond Antifade Mountant (Life Technologies). Image stacks (5 μm, 1 μm step) of multiple nuclei in a 318×318 μm area were acquired on a Nikon MR confocal microscope using a 40× oil immersion objective (0.31 μm/pixel). A custom MATLAB code was used to track nuclear outlines via H2b-eGFP and to quantify perinuclear F-actin intensities and γH2a.x foci in projected image stacks. Only the projected F-actin within the nuclear outline (apical perinuclear F-actin) was counted in this analysis. To account for variations in staining and imaging (the same imaging settings were used), fluorescence channels were histogram normalized. Perinuclear F-actin intensities were calculated as the sum of normalized phalloidin intensities within a nuclear border. DNA damage foci were determined by detecting 2D peaks in the normalized γH2a.x channel using the MATLAB script FastPeakFind (v. 1.7).

[3] = system: mouse embryonic skin fibroblasts (MSFs); test: Nuclear strain transfer from membrane to nucleus after cyclic stretch; conditions: after 30 min of 20% cyclic strain; relaxed vs stretched images; cytochalasin D 2 μM vs NT cells
Description: Transgenic mice harboring a fluorescence tag at the H2b histone—B6.Cg-Tg (HIST1H2BB/EGFP) 1 Pa/J, Stock No: 006069—were obtained from Jackson Laboratory (Bar Harbor, Me.). All animal procedures were performed following Institutional Animal Care & Use Committee approval. Skin from embryonic mice was harvested 18.5 days post-conception. Skin was minced, washed with Hank's Balanced Salt Solution (HBSS), and incubated in 35 mm dishes in shallow medium (˜0.5 mL) to avoid floating of the tissue for 4 days, during which fibroblasts extruded from the tissue. After 4 days, remaining tissue was removed (picked out with a pipette), and extruded cells in the dish were detached using TrypLE (Gibco, Gaithersburg, Md.) and expanded in culture for another 2 days before being seeded into stretch chambers for experiments. […] To test the use of chromatin dyes, cells were stained with Hoechst (NucBlue Live ReadyProbes; Life Technologies) 30 min before experiments. […]
To analyze the amount of strain transferred from the membrane to the nucleus after cyclic stretch routines, image stacks of nuclei were acquired under relaxed or stretched conditions, and bulk nuclear strain was calculated from the change in nuclear area using the same MATLAB script as above. Note that nuclear strain transfer could not be accurately analyzed before stretch routines because of the fast response in area decline.

[4] = static magnetic-field-only routine (MAG), no stretch
[5] = after 30 min 5% cyclic stretch, vs NT or VH control cells, BAPTA 50 μM, KN-62 10 μM
[6] = after 30 min 5% cyclic stretch, vs NT or VH control cells, BAPTA 50 μM, KN-62 10 μM, listed as CD
[7] = after 30 min 20% cyclic stretch, vs NT or VH control cells, BAPTA 50 μM, KN-62 10 μM
[8] = after 30 min 20% cyclic stretch, vs NT or VH control cells, BAPTA 50 μM, KN-62 10 μM, listed as CD

## C=C1[C@@H](C)[C@H]2[C@H](Cc3ccccc3)NC(=O)[C@]23[C@H](OC(C)=O)/C=C/[C@@](C)(O)C(=O)[C@@H](C)C/C=C/[C@H]3[C@@H]1O [cyto D, cytochalasin D]
[1]; 30 min 5% cyclic strain, 1 Hz, vs NT/VH cells (area increases)
  change in nuclear area: abrogated the increase in nuclear area
[1]; 30 min 5% cyclic strain, 1 Hz, vs NT/VH cells (area increases), listed as CD
  change in nuclear area: inhibited changes in nuclear area
[1]; 30 min 5% cyclic strain, 1 Hz, vs NT/VH cells (condensation decreases)
  chromatin condensation (H2b histogram kurtosis and skewness): distinctly increased chromatin condensation
[1]; 30 min 5% cyclic strain, 1 Hz, vs NT/VH cells (condensation decreases), listed as CD
  chromatin condensation (H2b histogram kurtosis and skewness): inhibited changes in nuclear area and chromatin condensation
[1]; 30 min 20% cyclic strain, 1 Hz, vs NT/VH cells (area decreases)
  change in nuclear area: inhibited nuclear shrinkage
[1]; 30 min 20% cyclic strain, 1 Hz, vs NT/VH cells (area decreases), listed as CD
  change in nuclear area: inhibited changes in nuclear area
[1]; 30 min 20% cyclic strain, 1 Hz, vs NT/VH cells (condensation increases)
  chromatin condensation (H2b histogram kurtosis and skewness): inhibited nuclear shrinkage and chromatin condensation
[1]; 30 min 20% cyclic strain, 1 Hz, vs NT/VH cells (condensation increases), listed as CD
  chromatin condensation (H2b histogram kurtosis and skewness): inhibited changes in nuclear area and chromatin condensation
[1]; [4]
  change in nuclear area: showed no effect
  chromatin condensation (H2b histogram kurtosis and skewness): showed no effect
[2]; [5]
  number of γH2a.x foci per nucleus (DNA damage, double-strand breaks): distinctly increased
  perinuclear F-actin intensities: increased
[2]; [6]
  number of γH2a.x foci per nucleus (DNA damage, double-strand breaks): increased number of foci
  perinuclear F-actin intensities: altered F-actin intensities
[2]; [7]
  number of γH2a.x foci per nucleus (DNA damage, double-strand breaks): distinctly increased
  perinuclear F-actin intensities: abrogated
[2]; [8]
  number of γH2a.x foci per nucleus (DNA damage, double-strand breaks): increased number of foci
  perinuclear F-actin intensities: altered F-actin intensities
[2]; after magnetic-field-only routine (MAG)
  perinuclear F-actin intensities: showed no effect
[2]; static magnetic-field-only controls (MAG), BAPTA 50 μM, KN-62 10 μM
  number of γH2a.x foci per nucleus (DNA damage, double-strand breaks): had no effect
[3]
  strain transferred from membrane to nuclei (nuclear strain): higher nuclear strains; also recorded: increase
